Reference: PubChem BioAssay (NCI)
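Five concentrations, 48 hours, 96-well plates. GI50 marks 50% less growth. TGI is the concentration that stops growth completely.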

Tests used:
Assay in all cases: NCI-60 cell line screen, 48 h
[1] = tested on: 786-0 renal
[2] = tested on: A498 renal
[3] = tested on: A549 NSCLC
[4] = tested on: ACHN renal
[5] = tested on: BT-549 breast
[6] = tested on: CAKI-1 renal
[7] = tested on: CCRF-CEM leukemia
[8] = tested on: COLO 205 colon
[9] = tested on: DU-145 prostate
[10] = tested on: EKVX NSCLC
[11] = tested on: HCC-2998 colon
[12] = tested on: HCT-116 colon
[13] = tested on: HCT-15 colon
[14] = tested on: HL-60(TB) leukemia
[15] = tested on: HOP-62 NSCLC
[16] = tested on: HOP-92 NSCLC
[17] = tested on: HS 578T breast
[18] = tested on: HT29 colon
[19] = tested on: IGROV1 ovarian
[20] = tested on: K-562 leukemia
[21] = tested on: KM12 colon
[22] = tested on: LOX IMVI melanoma
[23] = tested on: M14 melanoma
[24] = tested on: MALME-3M melanoma
[25] = tested on: MCF7 breast
[26] = tested on: MDA-MB-231 breast
[27] = tested on: MDA-MB-435
[28] = tested on: MDA-MB-468 breast
[29] = tested on: MOLT-4 leukemia
[30] = tested on: NCI-H226 lung
[31] = tested on: NCI-H23 lung
[32] = tested on: NCI-H460 lung
[33] = tested on: NCI-H522 lung
[34] = tested on: NCI/ADR-RES ovarian
[35] = tested on: OVCAR-3 ovarian
[36] = tested on: OVCAR-4 ovarian
[37] = tested on: OVCAR-5 ovarian
[38] = tested on: OVCAR-8 ovarian
[39] = tested on: PC-3 prostate
[40] = tested on: RPMI-8226 leukemia
[41] = tested on: RXF 393 renal
[42] = tested on: SF-268 CNS
[43] = tested on: SF-295 CNS
[44] = tested on: SF-539 CNS
[45] = tested on: SK-MEL-2 melanoma
[46] = tested on: SK-MEL-28 melanoma
[47] = tested on: SK-MEL-5 melanoma
[48] = tested on: SK-OV-3 ovarian
[49] = tested on: SN12C renal
[50] = tested on: SNB-19 CNS
[51] = tested on: SNB-75 CNS
[52] = tested on: SR leukemia
[53] = tested on: SW-620 colon
[54] = tested on: T-47D breast
[55] = tested on: TK-10 renal
[56] = tested on: U251 CNS
[57] = tested on: UACC-257 melanoma
[58] = tested on: UACC-62 melanoma
[59] = tested on: UO-31 renal

In the case of `Cc1ccc(-c2nc(C#N)c(S(=O)(=O)N3CCN(S(=O)(=O)c4ccccc4)CC3)o2)cc1`, the GI50 [1] is reported as > 100 µM, the TGI [1] is reported as > 100 µM and the GI50 [2] is reported as > 100 µM. The TGI [2] was > 100 µM, the GI50 [3] was > 100 µM and the TGI [3] was > 100 µM. The GI50 [4] was > 100 µM, the TGI [4] was > 100 µM and the GI50 [5] was > 100 µM. For the same compound, the TGI [5] was > 100 µM, the GI50 [6] was > 100 µM and the TGI [6] was > 100 µM. For the same compound, the GI50 [7] was > 100 µM, the TGI [7] was > 100 µM and the GI50 [8] was > 100 µM. The TGI [8] was > 100 µM, the GI50 [9] was > 100 µM and the TGI [9] was > 100 µM. For the same compound, the GI50 [10] was > 100 µM, the TGI [10] was > 100 µM and the GI50 [11] was > 100 µM. The TGI [11] was > 100 µM, the GI50 [12] was > 100 µM and the TGI [12] was > 100 µM. The GI50 [13] was > 100 µM, the TGI [13] was > 100 µM and the GI50 [14] was > 100 µM. The TGI [14] was > 100 µM, the GI50 [15] was > 100 µM and the TGI [15] was > 100 µM. For the same compound, the GI50 [16] was > 100 µM, the TGI [16] was > 100 µM and the GI50 [17] was > 100 µM. For the same compound, the TGI [17] was > 100 µM, the GI50 [18] was > 100 µM and the TGI [18] was > 100 µM. The GI50 [19] was > 100 µM, the TGI [19] was > 100 µM and the GI50 [20] was > 100 µM. The TGI [20] was > 100 µM, the GI50 [21] was > 100 µM and the TGI [21] was > 100 µM. The GI50 [22] was > 100 µM, the TGI [22] was > 100 µM and the GI50 [23] was > 100 µM. For the same compound, the TGI [23] was > 100 µM, the GI50 [24] was > 100 µM and the TGI [24] was > 100 µM. The GI50 [25] was > 100 µM, the TGI [25] was > 100 µM and the GI50 [26] was > 100 µM. The TGI [26] was > 100 µM, the GI50 [27] was > 100 µM and the TGI [27] was > 100 µM. For the same compound, the GI50 [28] was > 100 µM, the TGI [28] was > 100 µM and the GI50 [29] was > 100 µM. The TGI [29] was > 100 µM, the GI50 [30] was > 100 µM and the TGI [30] was > 100 µM. The GI50 [31] was > 100 µM, the TGI [31] was > 100 µM and the GI50 [32] was > 100 µM. For the same compound, the TGI [32] was > 100 µM, the GI50 [33] was > 100 µM and the TGI [33] was > 100 µM. For the same compound, the GI50 [34] was > 100 µM, the TGI [34] was > 100 µM and the GI50 [35] was > 100 µM. For the same compound, the TGI [35] was > 100 µM, the GI50 [36] was > 100 µM and the TGI [36] was > 100 µM. The GI50 [37] was > 100 µM, the TGI [37] was > 100 µM and the GI50 [38] was > 100 µM. For the same compound, the TGI [38] was > 100 µM, the GI50 [39] was > 100 µM and the TGI [39] was > 100 µM. The GI50 [40] was > 100 µM, the TGI [40] was > 100 µM and the GI50 [41] was > 100 µM. For the same compound, the TGI [41] was > 100 µM, the GI50 [42] was > 100 µM and the TGI [42] was > 100 µM. For the same compound, the GI50 [43] was > 100 µM, the TGI [43] was > 100 µM and the GI50 [44] was > 100 µM. For the same compound, the TGI [44] was > 100 µM, the GI50 [45] was > 100 µM and the TGI [45] was > 100 µM. The GI50 [46] was > 100 µM, the TGI [46] was > 100 µM and the GI50 [47] was > 100 µM. For the same compound, the TGI [47] was > 100 µM, the GI50 [48] was > 100 µM and the TGI [48] was > 100 µM. The GI50 [49] was > 100 µM, the TGI [49] was > 100 µM and the GI50 [50] was > 100 µM. The TGI [50] was > 100 µM, the GI50 [51] was > 100 µM and the TGI [51] was > 100 µM. The GI50 [52] was > 100 µM, the TGI [52] was > 100 µM and the GI50 [53] was > 100 µM. For the same compound, the TGI [53] was > 100 µM, the GI50 [54] was > 100 µM and the TGI [54] was > 100 µM. For the same compound, the GI50 [55] was > 100 µM, the TGI [55] was > 100 µM and the GI50 [56] was > 100 µM. The TGI [56] was > 100 µM, the GI50 [57] was > 100 µM and the TGI [57] was > 100 µM. The GI50 [58] was > 100 µM, the TGI [58] was > 100 µM and the GI50 [59] was > 100 µM. The TGI [59] was > 100 µM.
